Laboratory results: the NIST ThermoML archive (doi:10.1021/je034180e)
Numbers after ± are expanded uncertainties.

Conditions: Liquid

CC(C)C(=O)O [2-methylpropanoic acid]
Conditions | vapor or sublimation pressure [kPa]
375.21 K | 14.55 ± 0.57
382.14 K | 19.58 ± 0.59
391.77 K | 29.65 ± 0.64
399.43 K | 39.72 ± 0.7
405.44 K | 49.79 ± 0.75
410.75 K | 59.85 ± 0.8
415.51 K | 69.92 ± 0.85
419.77 K | 79.99 ± 0.9
423.36 K | 90.07 ± 0.95
424.86 K | 95.1 ± 0.98
426.16 K | 100.59 ± 1

CC(C)CC(=O)O [3-methylbutanoic acid]
Conditions | vapor or sublimation pressure [kPa]
396.05 K | 14.56 ± 0.57
402.9 K | 19.59 ± 0.59
412.87 K | 29.65 ± 0.64
420.7 K | 39.72 ± 0.7
427.18 K | 49.78 ± 0.75
432.62 K | 59.86 ± 0.8
437.44 K | 69.92 ± 0.85
441.6 K | 79.99 ± 0.9
445.16 K | 90.07 ± 0.95
446.6 K | 95.1 ± 0.98
447.92 K | 100.08 ± 1

CCCC(=O)O [butanoic acid]
Conditions | vapor or sublimation pressure [kPa]
383.55 K | 14.56 ± 0.57
390.87 K | 19.58 ± 0.59
401.32 K | 29.65 ± 0.64
409 K | 39.72 ± 0.7
415 K | 49.79 ± 0.75
420.22 K | 59.86 ± 0.8
424.81 K | 69.92 ± 0.85
428.96 K | 79.99 ± 0.9
432.61 K | 90.07 ± 0.95
434.51 K | 95.1 ± 0.97
436.05 K | 100.04 ± 1

CCCCCCC(=O)O [heptanoic acid]
Conditions | vapor or sublimation pressure [kPa]
413.48 K | 4.7 ± 0.52
426.48 K | 8.63 ± 0.54
435.07 K | 12.56 ± 0.56
441.33 K | 16.57 ± 0.58
446.4 K | 20.63 ± 0.6
451 K | 24.65 ± 0.62
453.8 K | 27.67 ± 0.63

CCCCCC(=O)O [hexanoic acid]
Conditions | vapor or sublimation pressure [kPa]
413.4 K | 9.52 ± 0.54
422.88 K | 14.56 ± 0.57
429.92 K | 19.59 ± 0.59
435.62 K | 24.63 ± 0.62
440.03 K | 29.64 ± 0.64
444.26 K | 34.68 ± 0.67
447.88 K | 39.72 ± 0.69
451.43 K | 44.75 ± 0.72

CCCCC(=O)O [pentanoic acid]
Conditions | vapor or sublimation pressure [kPa]
403.15 K | 14.56 ± 0.57
410.71 K | 19.59 ± 0.59
417.07 K | 24.63 ± 0.62
422.19 K | 29.65 ± 0.65
430.08 K | 39.72 ± 0.7
436.48 K | 49.78 ± 0.75
441.89 K | 59.85 ± 0.8
446.45 K | 69.92 ± 0.85
448.48 K | 74.96 ± 0.88
450.35 K | 79.99 ± 0.9
451.92 K | 85.03 ± 0.93

CCC(=O)O [propanoic acid]
Conditions | vapor or sublimation pressure [kPa]
361.52 K | 14.56 ± 0.57
368.37 K | 19.58 ± 0.59
378.95 K | 29.65 ± 0.64
386.74 K | 39.73 ± 0.7
392.93 K | 49.79 ± 0.75
398.09 K | 59.86 ± 0.8
402.65 K | 69.92 ± 0.85
406.8 K | 79.99 ± 0.9
410.33 K | 90.07 ± 0.95
411.97 K | 95.1 ± 0.98
413.74 K | 101.21 ± 1
